# Results reported in patent US20240025849A1 (MAX DELBRÜCK-CENTRUM FÜR MOLEKULARE MEDIZIN IN DER …, priority 2020, published 2024).
# System: primary cultured neonatal astrocytes
# Test: Propidium iodide based proliferation and cell death assay in astrocytes
# Settings: 2.5 μM C1, 48 hours, unstimulated
# Description: Primary cultured neonatal astrocytes. The preparation of primary cultured neonatal astrocytes followed the preparation of the primary cultured neonatal microglia, described above. After the third shake off, the remaining astrocytes were trypsinated, washed with PBS and seeded into a 96 well plate (10 000 cells/well, 200 μL medium per well).
# Propidium iodide based proliferation and cell death assay. To determine the relative proliferation and cell death, the cells were seeded into a […], let adhere for 24 hours and afterwards treated for additional 48 hours. The supernatant was removed, and the cells were washed carefully with 37° C. HBSS once. 1/200 propidium iodide PBS solution was added and the cells were incubated for 10 minutes. The intensity of the propidium iodide signal of the dead cells was measured using a microplate reader. Afterwards, all cells were killed with a 10 min incubation of 10% DMSO and the propidium iodide signal of all cells was measured. All signals were corrected for the background noise, subtracting the blank signal. The percentage of dead cells was calculated by dividing the dead-cell-signal by the all-cell-signal. Proliferation was calculated as a relative value to the plain medium control.
structure (smiles),measurement,value
COc1ccc(NC(=O)C(NC(=O)C2CCCN2C(=O)OCc2ccccc2)c2ccc(OC)cc2)cc1 (centres unmarked) [C1],astrocytes cell death rate,no significant effect
same,proliferation of astrocytes,did not show an effect
